Measured values reported in patent US20110171171A1, “BRIDGED SECONDARY AMINES AND USE THEREOF AS IAP BIR DOMAIN BINDING COMPOUNDS” (Aegera Therapeutics, Inc., priority 2008, published 2011).

Key:
Type in all cases: cell-based
[1] = system: Colorectal carcinoma HCT116 cells; assay: HCT116 + ETR1 cell death assay (MTT, 72 hours); details: with HGS ETR1 40 ng/ml
Protocol: Colorectal carcinoma HCT116 cells were cultured as monolayers in 96 well plates at a density of 2000 cells per well in McCoy's 5a medium (HyClone) supplemented with 2.2 g/L sodium bicarbonate (Gibco), 10% FBS (HyClone) and 1% penecillin/streptomycin (HyClone). 24 hours later, triplicate wells were treated with HGS ETR1 (40 ng/ml) in combination with compound. Cells were incubated in the presence of compound and HGS agonistic Trail receptor antibody, ETR1 (Mapatumamab, 40 ng/ml) for 72 hours. Metabolic viability of remaining cells was assessed by MTT (thiazolyl blue tetrazolium bromide, Sigma) assay.
(§1) EC50 values (50% cell survival in the presence of compound as compared to untreated controls) were calculated from survival curves using BioAssay software (CambridgeSoft, HCT116 and SKOV3 SAR) and GraphPad Prism (Graph Pad Software Inc., Synoviocyte SAR).

[2] = system: Rheumatoid arthritis human fibroblast-like synoviocytes (HFLS-RA); assay: Synoviocytes + Fas antibody cell survival assay (Cell Titer-Glo); details: with 300 ng/ml anti-human CD95 (Fas) antibody CH-11, 72 hours, read-out: EC50 synoviocyctes + FAS
Protocol: Rheumatoid arthritis human fibroblast-like synoviocytes (HFLS-RA, Cell Applications Inc.) were seeded in 96-well plates at 3000 cells per well in complete synoviocyte growth medium (Cell Applications Inc.) one day prior to treatment. Triplicate wells were treated for 72 hours compound in combination with 300 ng/ml anti-human CD95 (Fas) antibody (clone CH-11, Beckman Coulter/Immunotech). Cell survival was measured by Cell Titer-Glo Luminescent Assay (Promega).
as §1

[3] = system: Ovarian adenocarcinoma SKOV3 cells; assay: SKOV3 cell death assay (MTT, 72 hours); details: Homo sapiens, SK-OV-3, compound alone
Protocol: Ovarian adenocarcinoma SKOV3 cells were cultured as monolayers in McCoy's 5a medium (HyClone) supplemented with 2.2 g/L sodium bicarbonate (Gibco), 10% FBS (HyClone) and 1% penicillin/streptomycin (HyClone). Cells were seeded in 96 well plates at 5000 cells/well. After 24 hours in culture, cells were treated with compound. Cells were incubated in the presence of compound for 72 hours. Metabolic viability of remaining cells was assessed by MTT (thiazolyl blue tetrazolium bromide, Sigma) assay.
as §1

CN[C@@H](C)C(=O)N[C@H](C(=O)N1CCC[C@H]1CN(CCc1ccccc1)C(=O)CNC(=O)c1ccc(-c2ccc(C(=O)NCC(=O)N(CCc3ccccc3)C[C@@H]3CCCN3C(=O)[C@@H](NC(=O)[C@H](C)NC)C3CCCCC3)cc2)cc1)C1CCCCC1 [Compound 2]
EC50 [1]: < 100 nM | EC50 [2]: < 100 nM | EC50 [3]: < 100 nM

CN[C@@H](C)C(=O)N[C@H](C(=O)N1CCC[C@H]1CN(CCc1ccccc1)C(=O)c1ccc2cc(C(=O)N(CCc3ccccc3)C[C@@H]3CCCN3C(=O)[C@@H](NC(=O)[C@H](C)NC)C3CC3)ccc2c1)C1CC1 [Compound 20]
EC50 [1]: < 100 nM | EC50 [2]: > 100 nM

CN[C@@H](C)C(=O)N[C@H](C(=O)N1CCC[C@H]1CN(CCc1ccccc1)C(=O)CNC(=O)c1ccc(-c2ccc(C(=O)NCC(=O)N(CCc3ccccc3)C[C@@H]3CCCN3C(=O)[C@@H](NC(=O)[C@H](C)NC)C3CCCC3)cc2)cc1)C1CCCC1 [Compound 17]
EC50 [1]: < 100 nM | EC50 [2]: < 100 nM | EC50 [3]: < 100 nM

CN[C@@H](C)C(=O)N[C@H](C(=O)N1CCC[C@H]1CN(CCc1ccc(F)cc1)C(=O)c1ccc(-c2ccc(C(=O)N(CCc3ccc(F)cc3)C[C@@H]3CCCN3C(=O)[C@@H](NC(=O)[C@H](C)NC)C3CCCCC3)cc2)cc1)C1CCCCC1 [Compound 6]
EC50 [1]: < 100 nM | EC50 [2]: < 100 nM | EC50 [3]: < 100 nM

CN[C@@H](C)C(=O)N[C@H](C(=O)N1CCC[C@H]1CN(CCc1ccc(F)cc1)C(=O)CNC(=O)c1ccc(-c2ccc(C(=O)NCC(=O)N(CCc3ccc(F)cc3)C[C@@H]3CCCN3C(=O)[C@@H](NC(=O)[C@H](C)NC)C3CCCCC3)cc2)cc1)C1CCCCC1 [Compound 8]
EC50 [1]: < 100 nM | EC50 [2]: < 100 nM | EC50 [3]: < 100 nM

CN[C@@H](C)C(=O)N[C@H](C(=O)N1CCC[C@H]1CN(CCc1ccccc1)C(=O)c1ccc(-c2ccc(C(=O)N(CCc3ccccc3)C[C@@H]3CCCN3C(=O)[C@@H](NC(=O)[C@H](C)NC)C3CCCCC3)cc2)cc1)C1CCCCC1 [Compound 18]
EC50 [1]: < 100 nM | EC50 [2]: < 100 nM

CN[C@@H](C)C(=O)N[C@H](C(=O)N1CCC[C@H]1CN(CCc1ccccc1)C(=O)c1ccc(-c2ccc(C(=O)N(CCc3ccccc3)C[C@@H]3CCCN3C(=O)[C@@H](NC(=O)[C@H](C)NC)C3CCC3)cc2)cc1)C1CCC1 [Compound 21]
EC50 [1]: < 100 nM | EC50 [2]: < 100 nM

CN[C@@H](C)C(=O)N[C@H](C(=O)N1CCC[C@H]1CN(CCc1ccccc1)C(=O)CNC(=O)c1ccc(C(=O)NCC(=O)N(CCc2ccccc2)C[C@@H]2CCCN2C(=O)[C@@H](NC(=O)[C@H](C)NC)C2CCCCC2)cc1)C1CCCCC1 [Compound 1]
EC50 [1]: < 100 nM | EC50 [3]: < 100 nM

CN[C@@H](C)C(=O)N[C@H](C(=O)N1CCC[C@H]1CN(CCc1ccccc1)C(=O)c1ccc2cc(C(=O)N(CCc3ccccc3)C[C@@H]3CCCN3C(=O)[C@@H](NC(=O)[C@H](C)NC)C3CCCC3)ccc2c1)C1CCCC1 [Compound 16]
EC50 [1]: < 100 nM | EC50 [3]: < 100 nM

CN[C@@H](C)C(=O)N[C@H](C(=O)N1CCC[C@H]1CN(CCc1ccc(F)cc1)C(=O)CNC(=O)c1ccc2cc(C(=O)NCC(=O)N(CCc3ccc(F)cc3)C[C@@H]3CCCN3C(=O)[C@@H](NC(=O)[C@H](C)NC)C3CCCCC3)ccc2c1)C1CCCCC1 [Compound 9]
EC50 [1]: < 100 nM | EC50 [3]: < 100 nM

CN[C@@H](C)C(=O)N[C@H](C(=O)N1CCC[C@H]1CN(CCc1ccccc1)C(=O)c1ccc2cc(C(=O)N(CCc3ccccc3)C[C@@H]3CCCN3C(=O)[C@@H](NC(=O)[C@H](C)NC)C3CCC3)ccc2c1)C1CCC1 [Compound 19]
EC50 [1]: < 100 nM | EC50 [2]: < 100 nM

CN[C@@H](C)C(=O)N[C@H](C(=O)N1CCC[C@H]1CN(CCc1ccccc1)C(=O)c1ccc(-c2ccc(C(=O)N(CCc3ccccc3)C[C@@H]3CCCN3C(=O)[C@@H](NC(=O)[C@H](C)NC)C3CC3)cc2)cc1)C1CC1 [Compound 22]
EC50 [1]: < 100 nM | EC50 [2]: < 100 nM

CN[C@@H](C)C(=O)N[C@H](C(=O)N1CCC[C@H]1CN(CCc1ccc(F)cc1)C(=O)c1ccc2cc(C(=O)N(CCc3ccc(F)cc3)C[C@@H]3CCCN3C(=O)[C@@H](NC(=O)[C@H](C)NC)C3CCCCC3)ccc2c1)C1CCCCC1 [Compound 11]
EC50 [1]: < 100 nM | EC50 [2]: < 100 nM

CN[C@@H](C)C(=O)N[C@H](C(=O)N1CCC[C@H]1CN(CCc1ccccc1)C(=O)c1ccc(-c2ccc(C(=O)N(CCc3ccccc3)C[C@@H]3CCCN3C(=O)[C@@H](NC(=O)[C@H](C)NC)C3CCCC3)cc2)cc1)C1CCCC1 [Compound 23]
EC50 [1]: < 100 nM | EC50 [2]: < 100 nM
